Experimental data published in PMC8957246, “Synthesis and diverse biological activity profile of triethylammonium isatin-3-hydrazones” (ADMET & DMPK, 2022).

Columns and labels:
Type in all cases: cell-based
[1] = tested on: Staphylococcus aureus ATCC 6538P FDA 209P; experiment: Antimicrobial activity, serial dilution (MIC/MBC), Sa; conditions: Staphylococcus aureus; for MBC: read-out: MBC (converted)
Protocol: (§1) The antimicrobial activity of the test compounds was determined by the serial dilution technique in Muller Hinton Broth 2 and in Sabouradu broth for fungi. The cultures used for testing included Gram-positive bacteria: Staphylococcus aureus ATCC 6538P FDA 209P, Bacillus cereus ATCC 10702 NCTC 8035, Enterococcus faecalis ATCC 29212; Gram-negative bacteria: Escherichia coli ATCC 25922, Pseudomonas aeruginosa ATCC 9027, and fungi: Trichophyton mentagrophytes var. gypseum 1773, and Candida albicans ATCC 10231; methicillin-resistant strains of S. aureus (MRSA) was obtained from hospital patients with chronic tonsillitis in the Republican Clinical Hospital (Kazan, Russia). The bacterial load was 3.0 × 10^5 cfu/ml. The fungi load was 2.0 × 10^3 cfu/ml. The results were recorded every 24 h for 5-7 days. Cultures were incubated at 37 °C. The experiment was repeated three times. […] The minimum inhibitory concentration (MIC) was defined as the minimum concentration of a compound that inhibits the growth of the corresponding test microorganism. The growth of bacteria, as well as the absence of the growth due to the bacteriostatic action of compounds, were recorded.
(§2) Synthesized compounds were further evaluated for antimicrobial activity against test microorganisms: Staphylococcus aureus ATCC 209p (Sa), Bacillus cereus ATCC 8035 (Bc), Escherichia coli CDC F-50 (Ec), Enterococcus faecalis (Ef), Pseudomonas aeruginosa ATCC 9027, Aspergillus niger BKMF-1119, Trichophyton mentagrophytes var. gypseum 1773, and Candida albicans 855-653 including methicillin-resistant strains of S. aureus (MRSA 1 and MRSA 2). The minimum inhibitory (MIC) and minimum bactericidal (MBC) concentrations of ammonium salts were determined against these pathogens (Table 1). Due to the lack of activity of compounds 3a-g against Gram-negative bacterial strains and some fungi, the corresponding data are not shown.

[2] = tested on: Enterococcus faecalis ATCC 29212; experiment: Antimicrobial activity, serial dilution (MIC/MBC), Ef; conditions: ATCC29212
Protocol: as §1, §2

[3] = tested on: Phytophthora cactorum VKM F-985; experiment: Fungicidal activity, radial growth inhibition, P. cactorum; conditions: for EC50: Phytophthora cactorum, 168 h, day 7, EC50 = 50C/I, read-out: EC50, μg/mL at day 7
Text: Plant pathogenic bacterial strains Micrococcus luteus B-109, Pectobacterium atrosepticum 1043, Pectobacterium carotovorum subsp. carotovorum MI, Pseudomonas fluorescens EL-2.1, and Xanthomonas campestris B-610 and fungal strain Fusarium oxysporum IBPPM 543 were obtained from the specialized scientific culture collection of IBPPM RAS (WFCC no. 975, WDCM no. 1021) (CM IBPPM). Pathogenic fungus Phytophthora cactorum VKM F-985 provided by the All-Russian Collection of Microorganisms (VKM) and deposited at A.E. Favorsky Irkutsk Institute of Chemistry, SB RAS, was also used as test organism. Bacteria M. luteus, P. carotovorum subsp. carotovorum, P. atrosepticum, and Ps. fluorescens were grown in meat-peptone medium (BP), and X. campestris was grown in the medium with glucose, yeast extract, and calcium carbonate (GYCa). Solid media contained Bacto agar (18 g/L); pH was adjusted to 7.2-7.4. All bacterial cultures were grown at 28°C. The mycelial cultures of F. oxysporum and P. cactorum were grown on a glucose-peptone-yeast (GPY) nutrient medium at 27 °C. For inoculum preparation, both fungal strains were initially grown on the agar GPY in Petri dishes and then transferred into the seed medium by punching out 5 mm of the agar plate culture with a self-designed cutter.
For the fungicidal activity analysis, radial growth (colony diameters) of the fungi on a solid medium in the absence and in the presence of the compounds 3a,c-g solutions at various concentrations were compared. The method consisted of the following: sterile, melted and then cooled to about 60°C GPY agar medium (20.0 ml) was mixed with the precisely measured volumes of the solutions under question, and poured into a sterile Petri dish (90 mm i.d.). After solidification of GPY agar, the media were inoculated by the fungus using 10-day-old cultures of F. oxysporum or P. cactorum. The inoculation was done by transferring a 5-mm (i.d.) GPY-agar block covered with mycelium to the center of the Petri dish followed by incubation in a thermostat at 27°C. The fungicidal effect was scored by the size of mycelium colony on a Petri dish compared to the control without fungicidal admixtures to GPY agar. Each treatment was performed in at least four replicates in two independent experiments. The observation period ended when the control Petri dish was filled with mycelium (usually after 12 days). The inhibition of the phytopathogen colony growth by the compounds 3a,c-g or fludioxonil solutions was calculated as a percentage by which the mycelium radial propagation was decreased compared to the unaffected control, the latter was taken as 100 % of growth (or zero percent of inhibition). The EC50 value was calculated as the compound concentration at which the radial growth of the fungus colony was decreased by 50 % relative to the non-fungicidal control, according to the formula EC50 = 50C/I based on the approach developed e.g., in [34, 35].
The solutions of tested compounds were prepared with a concentration of 2 mmol/l (stock solution). For comparison, test compounds were also commonly applied disinfecting agents and antibiotics.

For `CC[N+](CC)(CC)CC(=O)N/N=C1\C(=O)N(Cc2cc(C(C)(C)C)c(O)c(C(C)(C)C)c2)c2cccc(Br)c21` [Compound 3e, 2-(2-(1-(3,5-Di-tert-butyl-4-hydroxybenzyl)-4-bromo-2-oxoindolin-3-ylidene)hydrazinyl)-N,N,N-triethyl-2-oxoethanammonium bromide], the MIC [1] was 8.9 ± 0.7 µM, the MBC [1] was 17.7 µM and the MBC [2] was greater than 500 µM. For the same compound, the MIC [2] was greater than 500 µM, the “Inhibition value, I (%)” value ([3]; C 1.36 μg/mL, age of the fungus 3 days) was 8% and the “Inhibition value, I (%)” value ([3]; C 1.36 μg/mL, age of the fungus 5 days) was 14%. For the same compound, the “Inhibition value, I (%)” value ([3]; C 1.36 μg/mL, age of the fungus 7 days) was 22%, the “Inhibition value, I (%)” value ([3]; C 1.36 μg/mL, age of the fungus 9 days) was 10% and the “Inhibition value, I (%)” value ([3]; C 1.36 μg/mL, age of the fungus 12 days) was 3%. The “Inhibition value, I (%)” value ([3]; C 3.41 μg/mL, age of the fungus 3 days) was 13%, the “Inhibition value, I (%)” value ([3]; C 3.41 μg/mL, age of the fungus 5 days) was 21% and the “Inhibition value, I (%)” value ([3]; C 3.41 μg/mL, age of the fungus 7 days) was 34%. For the same compound, the “Inhibition value, I (%)” value ([3]; C 3.41 μg/mL, age of the fungus 9 days) was 12%, the “Inhibition value, I (%)” value ([3]; C 3.41 μg/mL, age of the fungus 12 days) was 5% and the “Inhibition value, I (%)” value ([3]; C 6.81 μg/mL, age of the fungus 3 days) was 17%. For the same compound, the “Inhibition value, I (%)” value ([3]; C 6.81 μg/mL, age of the fungus 5 days) was 33%, the “Inhibition value, I (%)” value ([3]; C 6.81 μg/mL, age of the fungus 7 days) was 38% and the “Inhibition value, I (%)” value ([3]; C 6.81 μg/mL, age of the fungus 9 days) was 16%. For the same compound, the “Inhibition value, I (%)” value ([3]; C 6.81 μg/mL, age of the fungus 12 days) was 7%, the “Inhibition value, I (%)” value ([3]; C 10.22 μg/mL, age of the fungus 3 days) was 39% and the “Inhibition value, I (%)” value ([3]; C 10.22 μg/mL, age of the fungus 5 days) was 40%. For the same compound, the “Inhibition value, I (%)” value ([3]; C 10.22 μg/mL, age of the fungus 7 days) was 53%, the “Inhibition value, I (%)” value ([3]; C 10.22 μg/mL, age of the fungus 9 days) was 28% and the “Inhibition value, I (%)” value ([3]; C 10.22 μg/mL, age of the fungus 12 days) was 18%. For the same compound, the “Inhibition value, I (%)” value ([3]; C 13.62 μg/mL, age of the fungus 3 days) was 45%, the “Inhibition value, I (%)” value ([3]; C 13.62 μg/mL, age of the fungus 5 days) was 62% and the “Inhibition value, I (%)” value ([3]; C 13.62 μg/mL, age of the fungus 7 days) was 72%. The “Inhibition value, I (%)” value ([3]; C 13.62 μg/mL, age of the fungus 9 days) was 70%, the “Inhibition value, I (%)” value ([3]; C 13.62 μg/mL, age of the fungus 12 days) was 66% and the EC50 [3] was 3.1 µg/mL.
With `CC[N+](CC)(CC)CC(=O)N/N=C1\C(=O)N(Cc2cc(C(C)(C)C)c(O)c(C(C)(C)C)c2)c2c1ccc(C)c2C` [Compound 3d, 2-(2-(1-(3,5-Di-tert-butyl-4-hydroxybenzyl)-6,7-dimethyl-2-oxoindolin-3-ylidene)hydrazinyl)-N,N,N-triethyl-2-oxoethanammonium bromide] the MIC [1] was 3.1 ± 0.2 µM, the MBC [1] was 12.4 µM and the MBC [2] was 49.6 ± 3.9 µM. For the same compound, the MIC [2] was 49.6 ± 3.9 µM, the “Inhibition value, I (%)” value ([3]; C 1.26 μg/mL, age of the fungus 3 days) was 18% and the “Inhibition value, I (%)” value ([3]; C 1.26 μg/mL, age of the fungus 5 days) was 17%. The “Inhibition value, I (%)” value ([3]; C 1.26 μg/mL, age of the fungus 7 days) was 5%, the “Inhibition value, I (%)” value ([3]; C 1.26 μg/mL, age of the fungus 9 days) was 0% and the “Inhibition value, I (%)” value ([3]; C 1.26 μg/mL, age of the fungus 12 days) was 0%. For the same compound, the “Inhibition value, I (%)” value ([3]; C 3.15 μg/mL, age of the fungus 3 days) was 23%, the “Inhibition value, I (%)” value ([3]; C 3.15 μg/mL, age of the fungus 5 days) was 18% and the “Inhibition value, I (%)” value ([3]; C 3.15 μg/mL, age of the fungus 7 days) was 14%. For the same compound, the “Inhibition value, I (%)” value ([3]; C 3.15 μg/mL, age of the fungus 9 days) was 6%, the “Inhibition value, I (%)” value ([3]; C 3.15 μg/mL, age of the fungus 12 days) was 5% and the “Inhibition value, I (%)” value ([3]; C 6.30 μg/mL, age of the fungus 3 days) was 29%. The “Inhibition value, I (%)” value ([3]; C 6.30 μg/mL, age of the fungus 5 days) was 19%, the “Inhibition value, I (%)” value ([3]; C 6.30 μg/mL, age of the fungus 7 days) was 15% and the “Inhibition value, I (%)” value ([3]; C 6.30 μg/mL, age of the fungus 9 days) was 8%. The “Inhibition value, I (%)” value ([3]; C 6.30 μg/mL, age of the fungus 12 days) was 7%, the “Inhibition value, I (%)” value ([3]; C 9.45 μg/mL, age of the fungus 3 days) was 31% and the “Inhibition value, I (%)” value ([3]; C 9.45 μg/mL, age of the fungus 5 days) was 20%. For the same compound, the “Inhibition value, I (%)” value ([3]; C 9.45 μg/mL, age of the fungus 7 days) was 17%, the “Inhibition value, I (%)” value ([3]; C 9.45 μg/mL, age of the fungus 9 days) was 9% and the “Inhibition value, I (%)” value ([3]; C 9.45 μg/mL, age of the fungus 12 days) was 8%. The “Inhibition value, I (%)” value ([3]; C 12.60 μg/mL, age of the fungus 3 days) was 50%, the “Inhibition value, I (%)” value ([3]; C 12.60 μg/mL, age of the fungus 5 days) was 50% and the “Inhibition value, I (%)” value ([3]; C 12.60 μg/mL, age of the fungus 7 days) was 51%. The “Inhibition value, I (%)” value ([3]; C 12.60 μg/mL, age of the fungus 9 days) was 48%, the “Inhibition value, I (%)” value ([3]; C 12.60 μg/mL, age of the fungus 12 days) was 35% and the EC50 [3] was 11.2 µg/mL.
